How the values were obtained:
[1] = tested on: SARS-CoV-2 pseudovirus; type: cell-based
[2] = tested on: SARS-CoV pseudovirus; type: cell-based

Substance | inhibition of SARS-CoV-2 pseudovirus entry [1] | percent infection of SARS-CoV-2 pseudovirus particles [1] | inhibition of SARS-CoV pseudovirus entry [2] | efficiency of inhibition of SARS-CoV-2 compared with SARS-CoV and MERS CoV [1]
ACE2-Fc | inhibited | reduced percent infection | inhibited | 
heparin [reference compound] |  |  |  | more efficiently than it does for SARS-CoV and MERS CoV
